The subject of assay [1] is human-sensitive (H) glomerulus of the antennal lobe. As to the kind of experiment: Two-photon calcium imaging of odour-evoked activity in the human-sensitive (H) glomerulus. In kind it is in vivo, Aedes aegypti. To be noted: for response of H glomerulus: panel of 50 single odorants at approximately the same vapour-phase concentration (that of sulcatone in 1× human odour). From the text: (§1) We designed a two-photon microscope that incorporates both resonant scanning^69 and remote focusing^70,71 to achieve rapid, volumetric, in vivo neural imaging. Remote focusing allows rapid switching of the imaging plane by moving a small, lightweight mirror located upstream in the imaging path. […] In diagnostic tests, transition times for switching between two planes were less than 6 ms.
(§2) We custom-designed a mosquito holder with a 3D-printed plastic frame and thin stainless-steel plate (FIG. 2C, thickness 0.001 inch). A tiny mosquito-head-sized hole was photo-chemically etched on the plate (ETCHIT Company). To prepare for imaging, we anaesthetized a female on ice for ˜1 min, pushed the anterodorsal side of her head into the hole, and fixed it with UV glue (RapidFix 6121830ES). The antennae, maxillary palps, and proboscis remained below the metal plate and contacted neither the plate nor the glue. We added room-temperature saline (103 mM NaCl, 3 mM KCl, 5 mM TES, 26 mM NaHCO3, 1 mM NaH2PO4, 1.5 mM CaCl2), 4 mM MgCl2, 10 mM Trehalose, 10 mM Glucose; pH 7.1) to the holder and used sharp forceps to remove a section of the head capsule (including both cuticle and the edge of the eyes) from the part of the head protruding through the metal plate. During imaging, we continuously perfused saline bubbled with carbogen (5% CO2, 95% O2) through the holder and across the open head capsule at 125 ml/hour.
(§3) We used the ScanImage^72 package in Matlab to control the microscope and acquire images. For each individual, we chose either the right or left antennal lobe (AL) and recorded movies of odour-evoked activity (starting 7-30 sec before and continuing 20-60 sec after synthetic-odorant puffs; ˜30 sec before, ˜140 sec after puffs of complex extract). The movies covered the entire AL in Z-stacks that were 4 μm apart at 128×128 pixel resolution (22 stacks total, green channel only for the orco-T2A-QF2-QUAS-GCaMP 6f strain; 28 stacks, green and red channels for the brp>jGCaMP7s strain). The resulting voxel size was approximately 0.9×0.8×4 μm^3, and the volumetric imaging rate was 3.76 Hz for the orco-T2A-QF2-QUAS-GCaMP 6f strain and 2.95 Hz for the brp>jGCaMP7s strain. We increased the laser power exponentially with depth (ranging from 7.5 to 10 mW) to account for light decay and scattering in deeper tissues. Laser power as measured at the sample plane was 10 mW. After recording odour-evoked activity, we acquired 30-40 high-resolution structural volumes at high laser power to aid registration and downstream analysis. For this, we imaged the AL in 120-180 z-stacks, 1 μm apart, at 256×256 pixel resolution.
The three target glomeruli could be reliably identified across brains based on position and responses to key reference odorants. Human-sensitive glomerulus H was located in the anterior AL, adjacent to a landmark non-Orco glomerulus in our two-photon images (unlabeled area surrounded by Orco+ glomeruli; FIGS. 8A-B), and responded to 10^−2 heptanal. Animal-sensitive glomerulus A was located in the dorsal AL and responded to 10^−2 phenol. Broadly tuned glomerulus B was located in the posterior-medial AL and responded to 10^−2 benzaldehyde. Glomeruli H, A, and B tentatively correspond to V3, MD2, and PD1, respectively, in a previously published atlas^35, but we cannot be sure without molecular markers.
We used area under df/f curves as a metric for neural activity. For single-odorant stimuli, which evoked single df/f peaks, we defined the peak boundaries by first locating the max (for activation) or min (for inhibition) points in the df/f curve and then extending from the max/min point until df/f dropped to background levels. For natural odour extracts, which sometimes evoked multiple peaks, we integrated df/f values from desorption of the focusing trap to the end of neural recording (0 to 140 sec). […]

The subject of assay [2] is female Aedes aegypti mosquitoes. As to the kind of experiment: Two-port olfactometer host-preference assay. To be noted: in the absence of human or animal odour. In kind it is in vivo. The protocol:
We tested the host preference of mated, non-blood-fed, 7-14 day old females that had been housed overnight with access to water only (no sucrose). We used a two-port olfactometer for choice and no-choice tests involving live hosts (FIGS. 1A and C) or sleeves/hair (FIGS. 1B and D) as previously described3. We first acclimated 75-100 female mosquitoes in the olfactometer for 5 min, then opened a sliding door and activated a fan to pull air through the two host chambers and expose mosquitoes to host odour. Mosquitoes were able to fly upwind, sample the host-odour streams, and choose to enter either host port. After 6 min, we counted the number of mosquitoes trapped in each host port. For two-choice trials with live hosts, one chamber contained a human hand and arm up to the elbow (belonging to one of six 22-43 year old individuals: 3 female, 3 male; 3 Caucasian, 2 East Asian, 1 South Asian). The human exhaled gently near the opening of the chamber once every 30 sec to provide a source of breath. The other chamber contained a guinea pig (Cavia porcellus; one of two 4-5 year old pigmented females), rat (Rattus norvegicus domesticus; one of two 2-6 month old Sprague-Dawley males), or button quail (Coturnix coturnix; one 2-3 year old female). […]

For assay [3], the system named is animal-sensitive (A) glomerulus of the antennal lobe. Put plainly: Two-photon calcium imaging of odour-evoked activity in the animal-sensitive (A) glomerulus. To be noted: for activation of A glomerulus: panel of 50 single odorants at approximately the same vapour-phase concentration. It counts as in vivo, Aedes aegypti.
Text: We designed a two-photon microscope that incorporates both resonant scanning^69 and remote focusing^70,71 to achieve rapid, volumetric, in vivo neural imaging. Remote focusing allows rapid switching of the imaging plane by moving a small, lightweight mirror located upstream in the imaging path.
as §2, §3
We used area under df/f curves as a metric for neural activity. For single-odorant stimuli, which evoked single df/f peaks, we defined the peak boundaries by first locating the max (for activation) or min (for inhibition) points in the df/f curve and then extending from the max/min point until df/f dropped to background levels. For natural odour extracts, which sometimes evoked multiple peaks, we integrated df/f values from desorption of the focusing trap to the end of neural recording (0 to 140 sec).

For assay [4], the system named is broadly tuned (B) glomerulus of the antennal lobe. As to the kind of experiment: Two-photon calcium imaging of odour-evoked activity in the broadly tuned (B) glomerulus. It counts as in vivo, Aedes aegypti.
Text: as §1, §2
We used the ScanImage^72 package in Matlab to control the microscope and acquire images. For each individual, we chose either the right or left antennal lobe (AL) and recorded movies of odour-evoked activity (starting 7-30 sec before and continuing 20-60 sec after synthetic-odorant puffs; ˜30 sec before, ˜140 sec after puffs of complex extract). The movies covered the entire AL in Z-stacks that were 4 μm apart at 128×128 pixel resolution (22 stacks total, green channel only for the orco-T2A-QF2-QUAS-GCaMP 6f strain; 28 stacks, green and red channels for the brp>jGCaMP7s strain). […] Laser power as measured at the sample plane was 10 mW. […]

In assay [5] the test system is Orco+ glomeruli of the antennal lobe. Put plainly: Two-photon calcium imaging of odour-evoked activity across Orco+ glomeruli. It counts as in vivo, Aedes aegypti.
Text: as §1
We custom-designed a mosquito holder with a 3D-printed plastic frame and thin stainless-steel plate (FIG. 2C, thickness 0.001 inch). A tiny mosquito-head-sized hole was photo-chemically etched on the plate (ETCHIT Company). To prepare for imaging, we anaesthetized a female on ice for ˜1 min, pushed the anterodorsal side of her head into the hole, and fixed it with UV glue (RapidFix 6121830ES). The antennae, maxillary palps, and proboscis remained below the metal plate and contacted neither the plate nor the glue. […]
We used the ScanImage^72 package in Matlab to control the microscope and acquire images. For each individual, we chose either the right or left antennal lobe (AL) and recorded movies of odour-evoked activity (starting 7-30 sec before and continuing 20-60 sec after synthetic-odorant puffs; ˜30 sec before, ˜140 sec after puffs of complex extract). […] Laser power as measured at the sample plane was 10 mW. […]

Setting [6] is: concentrations calibrated to about ⅕th of activity evoked by 1× human odour, paraffin oil.
The mark [7] stands for this setting: synthetic odorants singly or as combo, vapour-phase concentrations characteristic of 1× human odour, 3-sec puffs.

In the case of `CCCCCC=O` [hexanal], the “response of H glomerulus” value in assay [1] is given as “no response”.

For `CCCCCCCCCC=O` [Decanal], the “activity evoked in H glomerulus” value in assay [1] (setting [6]) is “evoked activity in their cognate glomeruli”; in assay [1] (setting [7]) it was “strong and prolonged activity”.

With `O=C=O` [synthetic CO2, CO2], the “response of female mosquitoes in no-choice olfactometer trials” value in assay [2] is recorded as “minimal”.

As for `Cc1ccc(O)cc1` [p-cresol], the “activation of A glomerulus” value in assay [3] is “strongly activated”.

For `CCCCCCO` [1-hexanol], in assay [4] (setting [6]), the “activity evoked in B glomerulus” value is reported as “evoked activity in their cognate glomeruli”.

Consider `CC(=O)C(C)O` (stereo not shown) [acetoin], for which the “activation of B glomerulus” value in assay [4] (synthetic odorants singly or as combo, vapour-phase concentrations characteristic of 1× human odour) is reported as “strongly activated”. For the same compound, the “activation of A glomerulus” value in assay [3] was “strongly activated”. The “activity evoked in A glomerulus” value in assay [3] (physiological concentrations (as in 1× human odour)) is “too low to evoke consistent activity”.

Take `CCCCCCCCCCC=O` [undecanal]: in assay [1], the “response of H glomerulus” value is recorded as “strong activity”. Besides, the “duration of H glomerulus activity beyond the 3-second puff” value in assay [1] (single odorant at equal vapour-phase concentration) is at least 40 s. Besides, in assay [1] (setting [7]), the “activity evoked in H glomerulus” value was “strong and prolonged activity”.

Consider `Oc1ccccc1` [phenol], for which the “response of A glomerulus to reference odorant” value in assay [3] (10^−2 dilution) is “responded”. For the same compound, the “activation of A glomerulus” value in assay [3] is reported as “strongly activated”.

Take `CC(=O)CCC=C(C)C` [sulcatone]: the “glomerular activity in response to the compound” value was “did not see consistent activity” in assay [5] (at its concentration in 1× human odour) and “several glomeruli responded” in assay [5] (higher doses (data not shown)).

As for `O=Cc1ccccc1` [benzaldehyde], the “response of B glomerulus to reference odorant” value in assay [4] (10^−2 dilution) is listed as “responded”.

In the case of `CS(C)(=O)=O` [dimethyl sulfone], the “activation of A glomerulus” value in assay [3] is recorded as “strongly activated”.

Regarding `CCCCCCC=O` [heptanal], in assay [1] (10^−2 dilution), the “response of H glomerulus to reference odorant” value was “responded”.
